Each structure is given as a SMILES string.

This assay relates to AMPK. Kind of assay: AMPK enzyme activity assay (Delfia technology, AMARA peptide substrate). It is filed as biochemical. The settings on record: compound at 30 μM vs AMP at 200 μM. On the procedure: The following biological test allows the determination of the efficacy of compounds of formula (1) onto AMPK protein.
AMPK enzyme activities were assayed by using a Delfia technology. AMPK enzyme activities were carried out in microtiter plates in the presence of a synthetic peptide substrate (AMARAASAAALARRR, the “AMARA” peptide) and activators in serial dilutions. Reactions were initiated by the addition of AMPK. Enzyme activity was assayed by using an anti-phosphoserine antibody to measure the quantity of phosphate incorporated into the AMARAA.
No: Number of the molecule
Activity: Ratio between the % of control (basal activity) of compound of formula (1) at 30 μM and the % of control (basal activity) of AMP (natural substrate) at 200 μM.

Consider `Cc1cccc(C2(C)C(=O)Nc3sc(Cl)c(-c4ccccc4)c3C2=O)c1` (centres unmarked) [No 33, 2-chloro-5-methyl-5-(m-tolyl)-3-phenyl-7H-thieno[2,3-b]pyridine-4,6-dione], for which the “Activity: Ratio between the % of control (basal activity) of compound of formula (1) at 30 μM and the % of control (basal activity) of AMP (natural substrate) at 200 μM” value (“Activity: Ratio between the % of control” for short) was “A (0%<A<50%)”.

Regarding `Cc1ccc(-c2c(Cl)sc3c2C(=O)C(C)(c2ccccc2)C(=O)N3)cc1` (centres unmarked) [No 34, 2-chloro-5-methyl-5-phenyl-3-(p-tolyl)-7H-thieno[2,3-b]pyridine-4,6-dione], the “Activity: Ratio between the % of control” value is “A (0%<A<50%)”.

On to `COc1ccc(C2(C)C(=O)Nc3sc(Cl)c(-c4ccccc4)c3C2=O)cc1` (centres unmarked) [No 35, 2-chloro-5-(4-methoxyphenyl)-5-methyl-3-phenyl-7H-thieno[2,3-b]pyridine-4,6-dione], for which the “Activity: Ratio between the % of control” value is given as “A (0%<A<50%)”.

As for `COc1ccc(-c2c(Cl)sc3c2C(=O)C(C)(c2ccccc2)C(=O)N3)cc1` (centres unmarked) [No 36, 2-chloro-3-(4-methoxyphenyl)-5-methyl-5-phenyl-7H-thieno[2,3-b]pyridine-4,6-dione], the “Activity: Ratio between the % of control” value is “A (0%<A<50%)”.

In the case of `CC1(c2ccc(F)cc2)C(=O)Nc2sc(Cl)c(-c3cccc(F)c3)c2C1=O` (centres unmarked) [No 37, 2-chloro-3-(3-fluorophenyl)-5-(4-fluorophenyl)-5-methyl-7H-thieno[2,3-b]pyridine-4,6-dione], the “Activity: Ratio between the % of control” value is on record as “A (0%<A<50%)”.

Take `COc1cccc(C2(C)C(=O)Nc3sc(Cl)c(-c4ccccc4)c3C2=O)c1` (centres unmarked) [No 38, 2-chloro-5-(3-methoxyphenyl)-5-methyl-3-phenyl-7H-thieno[2,3-b]pyridine-4,6-dione]: the “Activity: Ratio between the % of control” value is reported as “A (0%<A<50%)”.

Consider `COc1ccc(-c2c(Cl)sc3c2C(=O)C(C)(c2ccc(F)cc2)C(=O)N3)cc1` (centres unmarked) [No 39, 2-chloro-5-(4-fluorophenyl)-3-(4-methoxyphenyl)-5-methyl-7H-thieno[2,3-b]pyridine-4,6-dione], for which the “Activity: Ratio between the % of control” value is “A (0%<A<50%)”.

For `COc1cccc(-c2c(Cl)sc3c2C(=O)C(C)(c2ccccc2)C(=O)N3)c1` (centres unmarked) [No 40, 2-chloro-3-(3-methoxyphenyl)-5-methyl-5-phenyl-7H-thieno[2,3-b]pyridine-4,6-dione], the “Activity: Ratio between the % of control” value is reported as “A (0%<A<50%)”.

Consider `COc1cccc(-c2c(Cl)sc3c2C(=O)C(C)(c2ccc(C)cc2)C(=O)N3)c1` (centres unmarked) [No 41, 2-chloro-3-(3-methoxyphenyl)-5-methyl-5-(p-tolyl)-7H-thieno[2,3-b]pyridine-4,6-dione], for which the “Activity: Ratio between the % of control” value is “A (0%<A<50%)”.

In the case of `COc1cccc(-c2c(Cl)sc3c2C(=O)C(C)(c2ccc(F)cc2)C(=O)N3)c1` (centres unmarked) [No 42, 2-chloro-5-(4-fluorophenyl)-3-(3-methoxyphenyl)-5-methyl-7H-thieno[2,3-b]pyridine-4,6-dione], the “Activity: Ratio between the % of control” value is given as “A (0%<A<50%)”.

In the case of `COc1ccc(C2(C)C(=O)Nc3sc(Cl)c(-c4cccc(OC)c4)c3C2=O)cc1` (centres unmarked) [No 43, 2-chloro-3-(3-methoxyphenyl)-5-(4-methoxyphenyl)-5-methyl-7H-thieno[2,3-b]pyridine-4,6-dione], the “Activity: Ratio between the % of control” value was “A (0%<A<50%)”.

For `COc1cccc(-c2c(Cl)sc3c2C(=O)C(C)(c2cccc(C)c2)C(=O)N3)c1` (centres unmarked) [No 44, 2-chloro-3-(3-methoxyphenyl)-5-methyl-5-(m-tolyl)-7H-thieno[2,3-b]pyridine-4,6-dione], the “Activity: Ratio between the % of control” value was “A (0%<A<50%)”.

In the case of `Cc1ccc(-c2c(Cl)sc3c2C(=O)C(C)(c2cccc(F)c2)C(=O)N3)cc1` (centres unmarked) [No 45, 2-chloro-5-(3-fluorophenyl)-5-methyl-3-(p-tolyl)-7H-thieno[2,3-b]pyridine-4,6-dione], the “Activity: Ratio between the % of control” value is “A (0%<A<50%)”.

Consider `O=C1Nc2sc(Cl)c(-c3ccc(F)cc3O)c2C(=O)C1(F)c1ccccc1` (centres unmarked) [No 46, 2-chloro-5-fluoro-3-(4-fluoro-2-hydroxy-phenyl)-5-phenyl-7H-thieno[2,3-b]pyridine-4,6-dione], for which the “Activity: Ratio between the % of control” value is “B (50%≦B<75%)”.

For the compound `Cc1ccccc1-c1c(Cl)sc2c1C(=O)C(C)(c1ccccc1F)C(=O)N2` (centres unmarked) [No 47, 2-chloro-5-(2-fluorophenyl)-5-methyl-3-(o-tolyl)-7H-thieno[2,3-b]pyridine-4,6-dione], the “Activity: Ratio between the % of control” value is “A (0%<A<50%)”.

As for `COC1(c2ccccc2)C(=O)Nc2sc(Cl)c(-c3ccccc3)c2C1=O` (centres unmarked) [No 48, 2-chloro-5-methoxy-3,5-diphenyl-7H-thieno[2,3-b]pyridine-4,6-dione], the “Activity: Ratio between the % of control” value is on record as “A (0%<A<50%)”. Also, the “Activity: Ratio between the % of control” value (listed as 2) is recorded as “B (50%≦B<75%)”.

Consider `CC1(c2ccc(F)cc2)C(=O)Nc2sc(Cl)c(-c3ccc(F)cc3)c2C1=O` (centres unmarked) [No 49, 2-chloro-3,5-bis(4-fluorophenyl)-5-methyl-7H-thieno[2,3-b]pyridine-4,6-dione], for which the “Activity: Ratio between the % of control” value is “A (0%<A<50%)”.

In the case of `Cc1ccc(C2(C)C(=O)Nc3sc(Cl)c(-c4ccc(F)cc4)c3C2=O)cc1` (centres unmarked) [No 50, 2-chloro-3-(4-fluorophenyl)-5-methyl-5-(p-tolyl)-7H-thieno[2,3-b]pyridine-4,6-dione], the “Activity: Ratio between the % of control” value was “A (0%<A<50%)”.

On to `CC1(c2cccc(F)c2)C(=O)Nc2sc(Cl)c(-c3ccc(F)cc3)c2C1=O` (centres unmarked) [No 51, 2-chloro-5-(3-fluorophenyl)-3-(4-fluorophenyl)-5-methyl-7H-thieno[2,3-b]pyridine-4,6-dione], for which the “Activity: Ratio between the % of control” value was “A (0%<A<50%)”.

On to `COc1ccccc1-c1c(Cl)sc2c1C(=O)C(C)(c1ccc(F)cc1)C(=O)N2` (centres unmarked) [No 52, 2-chloro-5-(4-fluorophenyl)-3-(2-methoxyphenyl)-5-methyl-7H-thieno[2,3-b]pyridine-4,6-dione], for which the “Activity: Ratio between the % of control” value is given as “A (0%<A<50%)”.

With `COc1ccc(C2(C)C(=O)Nc3sc(Cl)c(-c4ccc(F)cc4)c3C2=O)cc1` (centres unmarked) [No 53, 2-chloro-3-(4-fluorophenyl)-5-(4-methoxyphenyl)-5-methyl-7H-thieno[2,3-b]pyridine-4,6-dione], the “Activity: Ratio between the % of control” value is “A (0%<A<50%)”.

Regarding `CC1(c2ccc(S(C)(=O)=O)cc2)C(=O)Nc2sc(Cl)c(-c3ccc(F)cc3)c2C1=O` (centres unmarked) [No 54, 2-chloro-3-(4-fluorophenyl)-5-methyl-5-(4-methyl-sulfonylphenyl)-7H-thieno[2,3-b]pyridine-4,6-dione], the “Activity: Ratio between the % of control” value is reported as “A (0%<A<50%)”.

Take `CC1(c2ccccc2F)C(=O)Nc2sc(Cl)c(-c3ccc(F)cc3)c2C1=O` (centres unmarked) [No 55, 2-chloro-5-(2-fluorophenyl)-3-(4-fluorophenyl)-5-methyl-7H-thieno[2,3-b]pyridine-4,6-dione]: the “Activity: Ratio between the % of control” value is “B (50%≦B<75%)”.

Turning to `COc1ccccc1-c1c(Cl)sc2c1C(=O)C(C)(c1cccc(C)c1)C(=O)N2` (centres unmarked) [No 56, 2-chloro-3-(2-methoxyphenyl)-5-methyl-5-(m-tolyl)-7H-thieno[2,3-b]pyridine-4,6-dione], the “Activity: Ratio between the % of control” value was “A (0%<A<50%)”.

Regarding `Cc1ccc(-c2c(Cl)sc3c2C(=O)C(C)(c2ccc(F)cc2)C(=O)N3)cc1` (centres unmarked) [No 57, 2-chloro-5-(4-fluorophenyl)-5-methyl-3-(p-tolyl)-7H-thieno[2,3-b]pyridine-4,6-dione], the “Activity: Ratio between the % of control” value is reported as “B (50%≦B<75%)”.

`COc1cccc(C2(C)C(=O)Nc3sc(Cl)c(-c4ccccc4C)c3C2=O)c1` (centres unmarked) [No 58, 2-chloro-5-(3-methoxyphenyl)-5-methyl-3-(o-tolyl)-7H-thieno[2,3-b]pyridine-4,6-dione]: the “Activity: Ratio between the % of control” value is “C (C≧75%)”.

As to `Cc1cccc(C2(C)C(=O)Nc3sc(Cl)c(-c4ccccc4C)c3C2=O)c1` (centres unmarked) [No 59, 2-chloro-5-methyl-5-(m-tolyl)-3-(o-tolyl)-7H-thieno[2,3-b]pyridine-4,6-dione], the “Activity: Ratio between the % of control” value was “C (C≧75%)”.

With `Cc1ccc(C2(C)C(=O)Nc3sc(Cl)c(-c4cccc(F)c4)c3C2=O)cc1` (centres unmarked) [No 60, 2-chloro-3-(3-fluorophenyl)-5-methyl-5-(p-tolyl)-7H-thieno[2,3-b]pyridine-4,6-dione], the “Activity: Ratio between the % of control” value is listed as “C (C≧75%)”.
